The results in this text go back to PubChem BioAssay (NCI).

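How tested: cells in 96-well plates exposed to compound for 48 hours at five concentrations. TGI is the concentration that stops growth completely.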

What all share (assay): NCI anticancer screen, dose series, 48 h
Assay [1] has as its system COLO 205 colon.
Assay [2] relates to DU-145 prostate.
For assay [3], the system named is HL-60(TB) leukemia.
The subject of assay [4] is HT29 colon.
In assay [5] the test system is IGROV1 ovarian.
The test system of assay [6] is KM12 colon.
For assay [7], the system named is NCI/ADR-RES ovarian.
In assay [8] the test system is SF-268 CNS.
The subject of assay [9] is SK-MEL-28 melanoma.
Assay [10] relates to SW-620 colon.

In the case of `O=[N+]([O-])C(/C=C(\Cl)[N+](=O)[O-])=C(Nc1ccccc1)Nc1ccccc1`, the TGI in assay [1] turned out to be 23.1 µM; in assay [2], 31.7 µM; in [3], 14.9 µM; in [4], 25.7 µM; in assay [5], 31 µM; in [6], 24.3 µM. Besides, the TGI came to 58.5 µM in assay [7], 37.7 µM in [8], 24.6 µM in assay [9] and 11 µM in assay [10].
`Nc1ncnc2c1ncn2CCCNO`: the TGI in assay [1], in assay [2], in assay [3], in assay [4], in assay [5] and in assay [6] was > 100 µM in each case. Also, the TGI in [7], in [8], in [9] and in assay [10] was > 100 µM in each case.
Regarding `CC1CC[C@@]2(OC1)OC1C[C@H]3[C@@H]4CC=C5C[C@@H](OC6OC(CO)C(OC7OC(CO)C(O)C(O)C7O)C(O)C6OC6OC(C)C(O)C(O)C6O)CC[C@]5(C)[C@H]4CC[C@]3(C)C1[C@@H]2C` (stereo not given in full), the TGI in assay [1] worked out at 0.91 µM; in [2], 0.919 µM; in [3] it was 1.97 µM; in assay [4], 0.951 µM; in assay [5], 1.02 µM; in assay [6] it was 1.22 µM. Also, the TGI in assay [7] was determined as 5.71 µM; in assay [8] it was 1.2 µM; in [9], 1.02 µM; in [10], 1.51 µM.
Regarding `CC[P+](c1ccccc1)(N(C)C)N(C)C`, the TGI in [1], in [2], in [3], in assay [4], in assay [5] and in assay [6] was > 100 µM throughout. Moreover, the TGI in assay [7], in assay [8], in assay [9] and in assay [10] was > 100 µM each time.
Take `CC(C)(C)[C@H]1NC(=O)CN1C(=O)OCc1ccccc1`: the TGI in assay [1], in [2], in [3], in assay [4], in [5] and in assay [6] was > 100 µM each time. Besides, the TGI in [7], in [8], in assay [9] and in [10] was > 100 µM each time.
Turning to `COc1cc2c(cc1OCCN1CCN(CCOc3cc4c(cc3OC)C(=O)N3CCC[C@H]3C=N4)CC1)N=C[C@@H]1CCCN1C2=O`, the TGI in assay [1] was > 90.4 µM; in assay [2], > 100 µM; in assay [3], > 100 µM; in assay [4] it was > 100 µM; in [5] it was > 78.3 µM; in assay [6], > 75.3 µM. Further, the TGI in assay [7], in assay [8], in assay [9] and in [10] was > 100 µM in each case.
`CCOC(=O)CC1(N)CC2c3ccccc3OC(=O)C2C(=O)N1` (stereo not given): the TGI in [1], in [2], in assay [3], in assay [4], in [5] and in [6] was > 100 µM in each case. The TGI in assay [7], in [8], in assay [9] and in [10] was > 100 µM in each case.
In the case of `CC1=NN(C(=O)CC(=O)Nc2cccc(C)c2)C(=O)C1N=Nc1ccc(C(=O)O)cc1` (stereo not given), the TGI in assay [1], in [2], in assay [3], in assay [4], in [5] and in [6] was > 100 µM in each case. Further, the TGI in [7], in assay [8], in assay [9] and in [10] was > 100 µM each time.
`CN=C1C=C(/N=C2/C=C(N/C(=C\C#N)C(C)(C)O)OC2(C)C)OC1(C)C`: the TGI in assay [1] is > 100 µM; in [2] it was > 100 µM; in assay [3], 5.83 µM; in assay [4], > 100 µM; in assay [5], > 72.5 µM; in assay [6], > 100 µM. The TGI in [7] was > 62.6 µM; in [8], > 100 µM; in assay [9], > 100 µM; in assay [10], > 100 µM.
`CC1CC(C)(C)CC(OCCN2CCCCC2)(c2ccccc2)C1` (stereo not given): the TGI in assay [1] was 21.8 µM; in assay [2], 19.8 µM; in assay [3], 27.9 µM; in [4] it was 9.92 µM; in [5], 27.3 µM; in [6], 21.4 µM. Besides, the TGI in assay [7] stood at 33.9 µM; in assay [8] it was 23.9 µM; in assay [9] it was 29.7 µM; in assay [10] it was 32.5 µM.
`CN(Cc1ccccc1)C(=S)S`: the TGI was > 100 µM in [1]; > 100 µM in assay [2]; 59.1 µM in [3]; > 100 µM in assay [4]; > 100 µM in assay [5]; > 100 µM in assay [6]. In addition, the TGI in [7], in assay [8], in assay [9] and in assay [10] was > 100 µM in each case.
Regarding `COC(=O)c1sc2c(Cl)c(Cl)sc2c1Cl`, the TGI in assay [1], in assay [2], in assay [3], in assay [4], in [5] and in assay [6] was > 100 µM each time. In addition, the TGI in assay [7], in [8], in [9] and in [10] was > 100 µM in each case.
`COc1ccccc1-c1cc(=O)c2cccnc2[nH]1`: the TGI is 96 µM in assay [1]; > 100 µM in assay [2]; > 100 µM in assay [3]; > 100 µM in assay [4]; > 100 µM in assay [5]; > 100 µM in assay [6]. The TGI in assay [7], in assay [8], in [9] and in assay [10] was > 100 µM throughout.
Consider `C=C(C)C1CCC2(C)C1CCC1(C)C2CCC2C3(C)C4OC(OC4=O)C(C)(C)C3CCC21C` (stereo not given), for which the TGI is > 100 µM in assay [1]; > 100 µM in [2]; 80.1 µM in [3]; > 100 µM in assay [4]; > 100 µM in assay [5]; > 100 µM in assay [6]. In addition, the TGI in assay [7], in assay [8], in assay [9] and in assay [10] was > 100 µM throughout.
